Test: Pharmacokinetic parameters in male cynomolgus monkeys after nasogastric gavage (suspension) or oral (tablet) administration
Type: in vivo
Settings: for mean AUC relative to the suspension formulation / mean Cmax relative to the suspension formulation: oral, male cynomolgus monkeys, N=4/group
From the text: Pharmacokinetic Parameters and Summary Statistics for Male Cynomolgus Monkeys Following Nasogastric Gavage (2% Pluronic F108 in OraPlus Suspension) or Oral (Tablet Formulations) Administration (N=4/group)

[1] = "in situ" sorbic acid cocrystal/physical blend tablet (first mention, % CV~50-60)
[2] = tablet printed again as "in situ" sorbic acid cocrystal/physical blend tablet (second mention, % CV~30-45)

| Molecule | mean AUC relative to the suspension formulation [1] | mean Cmax relative to the suspension formulation [1] | mean AUC relative to the suspension formulation [2] | mean Cmax relative to the suspension formulation [2] | mean AUC relative to the suspension formulation of Example 4 (cynomolgus monkey, in vivo, po) | mean Cmax relative to the suspension formulation of Example 4 (cynomolgus monkey, in vivo, po) |
| --- | --- | --- | --- | --- | --- | --- |
| N-(4-(6-(4-(trifluoromethyl)phenyl)pyrimidin-4-yloxy)benzo[d]thiazol-2-yl)acetamide sorbic acid co-crystal [Example 5] | 52-63% | 52-63% | approximately 65% | approximately 65% | – | – |
| CC(=O)Nc1nc2c(Oc3cc(-c4ccc(C(F)(F)F)cc4)ncn3)cccc2s1 [Example 4, N-(4-(6-(4-(trifluoromethyl)phenyl)pyrimidin-4-yloxy)benzo[d]thiazol-2-yl)acetamide freebase] | – | – | – | – | 17-19% | 17-19% |

From patent publication US20080051453A1, “Sorbic acid analog co-crystals” (priority 2006, published 2008)
